In patent publication US5223169A, “Hydrolase surfactant systems and their use in laundering” (priority 1991, dated 1993):

What was measured:
Assay in all cases: pH-stat assay of triglyceride emulsion hydrolysis; critical oil-to-surfactant ratio
[1] = test system: enzyme from P. putida ATCC 53552 (lipase GC-1065); format: biochemical, Pseudomonas putida; conditions: for Enzyme Activity (initial rate of hydrolysis): enzyme 2 ppm; for Specific Activity determined from initial rates, GC-1065, High / Critical Ratio, GC-1065, High / Critical Ratio, GC-1065, Low / Specific Activity determined from initial rates, GC-1065, Low: trioctanoin emulsions; for Specific Activity determined from initial rates, GC-1065, High: high surfactant conc. as E41; for Critical Ratio, GC-1065, High / Critical Ratio, GC-1065, Low: lipase ~2 ppm; for Critical Ratio, GC-1065, High: high surfactant conc.: SDS 10 mM, Neodol 25-3S 10 mM, Surfonic JL-80X 5 mM, Triton X-100 10 mM, C16 DAPS 10 mM; for Critical Ratio, GC-1065, Low: low surfactant conc.: SDS 2 mM, Triton X-100 2 mM, C16 DAPS 0.5 mM; for Specific Activity determined from initial rates, GC-1065, Low: low surfactant conc. as E40
Text: (§1) To determine the critical ratio for any specific enzyme-surfactant combination, aliquots of an aqueous solution, each containing a determined (constant) amount of the enzyme which is effective in the absence of any surfactant to hydrolyze the triglycerides in an oily stain on a determined (constant) amount of a fabric soiled by a determined (constant) amount of a triglyceride oil, are mixed with a determined (constant) amount of a surfactant which is within the range of the amounts conventionally present in home laundry solutions, e.g., from about 0.2 to 1.5. mM, and which is effective to inhibit the hydrolyzing activity of the enzyme. To the aliquots are added a hydrolysis activator, e.g., trioctanoin, in increasing amounts and the hydrolyzing activity of the enzyme in the various solutions is determined.
(§2) The experiments determining enzyme activity, such as those set out in Tables IA and IB, were carried out as follows:
(§3) The desired amount of triglyceride was weighed into an appropriate size beaker, on a Mettler balance (model number AE163). The corresponding amount of surfactant was added to the triglyceride, from a previously prepared aqueous surfactant stock solution, and the triglyceride and surfactant mixed manually. The sample was then adjusted to the desired weight using doubly distilled H2 O. Emulsification of the sample was carried out, prior to assaying enzyme activity, with a probe sonicator (Braun-Sonic model 2000), on ice, for approx. 2 minutes.
(§4) (ii) Enzyme Activity Measurement:
(§5) This was achieved by monitoring the rate of acid liberation, from the enzymatic hydrolysis of the triglycerides in the emulsion. The assay was initiated by adding approx. 2 ppm lipase to 10 ml of the prepared emulsion. The acid liberated was monitored by autotitration, on a Radiometer pH-stat (model number ABU80) to an endpoint of a pH of 10. Initial rates were recorded for the first 5 minutes of the reaction, and the reaction rates reported as μmole H^+ titrated . min ^-1 mgE^-1. Occasionally enzyme activity is reported as % total oil hydrolyzed in 14 min. In these examples, the reaction was allowed to run for 14 min. and the amount of acid titrated recorded. The % total oil (triglyceride) hydrolyzed was then calculated by dividing the recorded value with the theoretically calculated value assuming three equivalents of oleic acid was produced for each triglyceride equivalent. All assays were run at ambient temperatures.

Enzyme Amano P = target: T1, Enzyme Amano P (Burkholderia cepacia, UniProt P22088); format: biochemical, P. fluorescens
T1 construct: purchased Amano Co
Text: as §1, §2, §3, §4, §5

Enzyme Amano 68S = format: biochemical, P. sp.; conditions: for Critical Ratio / Enzyme Activity: surfactant conc.: SDS 1 mM
Text: as §1, §2, §3, §4, §5

[2] = C12 LAS 1 mM, Neodol 25-9 0.5 mM, Neodol 25-3S 2 mM, Surfonic JL-80X 0.5 mM
[3] = Table IV, trioctanoin, C12 LAS 0.2 mM, Neodol 25-3S 0.5 mM, Neodol 25-9 0.5 mM, Surfonic JL80X 0.5 mM
[4] = Table Summary, second block of lines (corresponds to triolein Tables VI-IX)
[5] = Table VIII, triolein, C12 LAS 0.5 mM, Neodol 25-3S 0.5 mM, Neodol 25-9 0.5 mM, Surfonic JL80X 2.5 mM
[6] = Table II, trioctanoin, surfactant conc.: SDS 2 mM, C12 LAS 1 mM, Neodol 25-3S 2 mM, Neodol 25-9 0.5 mM, Surfonic JL80X 0.5 mM, Triton X100 2 mM
[7] = Table VI, triolein, surfactant conc.: SDS 1 mM, C12 LAS 0.5 mM, Neodol 25-3S 1 mM, Neodol 25-9 0.5 mM, Surfonic JL80X 0.5 mM
[8] = triolein emulsions, high conc.: SDS 10 mM, C12 LAS 5 mM, Neodol 25-9 5 mM, Neodol 25-3S 5 mM, Surfonic JL-80X 2.5 mM
[9] = Table III, trioctanoin, surfactant conc.: SDS 2 mM, C12 LAS 1 mM, Neodol 25-3S 2 mM, Neodol 25-9 0.5 mM, Surfonic JL80X 0.5 mM
[10] = Table VII, triolein, surfactant conc.: SDS 1 mM, others 0.5 mM

T1 sequence (P22088 45-364): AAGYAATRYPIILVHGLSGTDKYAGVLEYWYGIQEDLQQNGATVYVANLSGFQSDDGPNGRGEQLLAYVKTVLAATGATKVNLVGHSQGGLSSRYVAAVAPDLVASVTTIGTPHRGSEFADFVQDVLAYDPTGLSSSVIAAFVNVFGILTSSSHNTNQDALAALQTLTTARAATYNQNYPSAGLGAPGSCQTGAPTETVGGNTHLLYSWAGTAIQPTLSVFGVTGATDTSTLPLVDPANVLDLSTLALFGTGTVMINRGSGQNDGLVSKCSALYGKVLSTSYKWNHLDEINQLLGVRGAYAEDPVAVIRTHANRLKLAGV

## CCCCCCCCCCCCCCCC[N+](C)(C)CCCS(=O)(=O)[O-] [C16 DAPS]
[1]; trioctanoin 0.5 mM, surfactant 0.5 mM, system ratio 1
  Enzyme Activity (initial rate of hydrolysis): 0 μmole H^+ released min^-1 mgE^
[1]; trioctanoin 2.5 mM, surfactant 0.5 mM, system ratio 5
  Enzyme Activity (initial rate of hydrolysis): 0 μmole H^+ released min^-1 mgE^
[1]; trioctanoin 5 mM, surfactant 0.5 mM, system ratio 10
  Enzyme Activity (initial rate of hydrolysis): 0 μmole H^+ released min^-1 mgE^
[1]; trioctanoin 10 mM, surfactant 0.5 mM, system ratio 20
  Enzyme Activity (initial rate of hydrolysis): 334 μmole H^+ released min^-1 mgE^
[1]; trioctanoin 10 mM, surfactant 10 mM, system ratio 1
  Enzyme Activity (initial rate of hydrolysis): 0 μmole H^+ released min^-1 mgE^
[1]; trioctanoin 15 mM, surfactant 0.5 mM, system ratio 30
  Enzyme Activity (initial rate of hydrolysis): 405 μmole H^+ released min^-1 mgE^
[1]; trioctanoin 20 mM, surfactant 0.5 mM, system ratio 40
  Enzyme Activity (initial rate of hydrolysis): 370 μmole H^+ released min^-1 mgE^
[1]; trioctanoin 50 mM, surfactant 10 mM, system ratio 5
  Enzyme Activity (initial rate of hydrolysis): 0 μmole H^+ released min^-1 mgE^
[1]; trioctanoin 200 mM, surfactant 10 mM, system ratio 20
  Enzyme Activity (initial rate of hydrolysis): 398 μmole H^+ released min^-1 mgE^
[1]; trioctanoin 300 mM, surfactant 10 mM, system ratio 30
  Enzyme Activity (initial rate of hydrolysis): 370 μmole H^+ released min^-1 mgE^
[1]; trioctanoin 400 mM, surfactant 10 mM, system ratio 40
  Enzyme Activity (initial rate of hydrolysis): 417 μmole H^+ released min^-1 mgE^
[1]; trioctanoin as oil, surfactant 0.5 and 10 mM (Table IA)
  critical ratio (system ratio of oil to surfactant at which enzymatic activity begins): 10-20
[1]
  Specific Activity determined from initial rates, GC-1065, High: 450 μeq acid/min.mg
  Specific Activity determined from initial rates, GC-1065, Low: 450 μeq acid/min.mg
[1]; C12 LAS 5 mM, Neodol 25-9 5 mM
  Critical Ratio, GC-1065, High: 10-20
[1]; [2]
  Critical Ratio, GC-1065, Low: 10-20

## CCCCCCCCCCCCCCCC [Hexadecane, hexadecane]
[1]; triolein 0.3 mM + hexadecane 1.2 mM, Surfonic JL-80X 0.3 mM, system ratio 5
  Enzyme Activity: 8 μmole H^+ released min^-1 mgE^
[1]; triolein 0.3 mM + hexadecane 1.2 mM, Surfonic JL-80X 0.3 mM, system ratio 5, listed as hexadecane
  Enzyme Activity: active
Enzyme Amano P; trioctanoin 5 mm + hexadecane 10 mm, Neodol 25-3S 0.5, system ratio 40
  Enzyme Activity: 45 μmole H^+ released min^-1 mgE^

## CCCCCCCCCCCC(=O)N(CC)CC [N,N-diethyldodecanamide]
[1]; no trioctanoin, N,N-diethyldodecanamide 10.0 mm, Neodol 25-9 0.5 mm
  Enzyme Activity: < 5 μeq of fatty acid produced in 14 minutes
[1]; trioctanoin 2.5 mm, N,N-diethyldodecanamide 2.5 mm, Neodol 25-9 0.5 mm
  Enzyme Activity: 5 μeq of fatty acid produced in 14 minutes
[1]; trioctanoin 2.5 mm, N,N-diethyldodecanamide 5.0 mm, Neodol 25-9 0.5 mm
  Enzyme Activity: 12 μeq of fatty acid produced in 14 minutes
[1]; trioctanoin 2.5 mm, N,N-diethyldodecanamide 7.5 mm, Neodol 25-9 0.5 mm
  Enzyme Activity: 19 μeq of fatty acid produced in 14 minutes

## CCCCCCCC/C=C\CCCCCCCC(=O)[O-].[Na+] [Na Oleate, sodium oleate]
[1]; triolein substrate, surfactant 0.3 mM, system ratio 1
  Enzyme Activity: 0 μmole H^+ titrated . min ^-1 m
[1]; triolein substrate, surfactant 0.3 mM, system ratio 5
  Enzyme Activity: 0 μmole H^+ titrated . min ^-1 m
[1]; triolein substrate, surfactant 0.3 mM, system ratio 10
  Enzyme Activity: 0 μmole H^+ titrated . min ^-1 m
[1]; triolein substrate, surfactant 0.3 mM, system ratio 20
  Enzyme Activity: 60 μmole H^+ titrated . min ^-1 m
[1]; triolein substrate, surfactant 0.3 mM, system ratio 30
  Enzyme Activity: 90 μmole H^+ titrated . min ^-1 m

## CCCCCCCCCCCCOS(=O)(=O)[O-].[Na+] [SDS, sodium dodecylsulfate]
Enzyme Amano 68S; [3]
  Critical Ratio: 0.1-0.5
  Enzyme Activity: 400 μmole H^+ released min^-1 mgE^
Enzyme Amano 68S; [4]
  critical ratio class, Amano 68S: 0 (means a critical ratio of 1.0-10)
Enzyme Amano 68S; [5]
  Critical Ratio: 1-5
  Enzyme Activity: 200 μmole H^+ released min^-1 mgE^
Enzyme Amano 68S; trioctanoin emulsions, high surfactant conc. as E45
  Specific Activity determined from initial rates, AMANO 68S, High: 1200 μeq acid/min.mg
Enzyme Amano 68S; trioctanoin emulsions, lipase ~2 ppm, high conc.: SDS 10 mM, C12 LAS 2 mM, Neodol 25-9 5 mM, Neodol 25-3S 10 mM, Surfonic JL-80X 5 mM
  Critical Ratio, AMANO 68S, High: 10-15
Enzyme Amano 68S; trioctanoin emulsions, lipase ~2 ppm, low conc.: SDS 1 mM, C12 LAS 0.2 mM, Neodol 25-9 0.5 mM, Neodol 25-3S 0.5 mM, Surfonic JL-80X 0.5 mM
  Critical Ratio, AMANO 68S, Low: 0.1-0.5
Enzyme Amano 68S; trioctanoin emulsions, low surfactant conc. as E44
  Specific Activity determined from initial rates, AMANO 68S, Low: 400 μeq acid/min.mg
Enzyme Amano 68S; triolein emulsions, high conc. as E59
  Activity (specific hydrolysis activity from initial rates), AMANO 68S, High: 175 μeq acid/min./mg
Enzyme Amano 68S; triolein emulsions, high conc.: SDS 10 mM, C12 LAS 5 mM, Neodol 25-9 5 mM, Neodol 25-3S 5 mM, Surfonic JL-80X 2.5 mm
  R, critical (minimum activating molar) ratio, AMANO 68S, High: 5-10
Enzyme Amano 68S; triolein emulsions, low conc. as E58
  Activity (specific hydrolysis activity from initial rates), AMANO 68S, Low: 200 μeq acid/min./mg
Enzyme Amano 68S; triolein emulsions, low conc.: SDS 1 mM, C12 LAS 0.5 mM, Neodol 25-9 0.5 mM, Neodol 25-3S 0.5 mM, Surfonic JL-80X 2.5 mM
  R, critical (minimum activating molar) ratio, AMANO 68S, Low: 1-5
[1]; [6]
  Critical Ratio: 0.5-5.0
  Enzyme Activity: 325 μmole H^+ released min^-1 mgE^
[1]; [4]
  critical ratio class, enzyme From ATCC 53552: 0 (means a critical ratio of 1.0-10)
[1]; [7]
  Critical Ratio: 5-10
  Enzyme Activity: 60 μmole H^+ released min^-1 mgE^
[1]
  Specific Activity determined from initial rates, GC-1065, High: 450 μeq acid/min.mg
  Specific Activity determined from initial rates, GC-1065, Low: 325 μeq acid/min.mg
[1]; C12 LAS 5 mM, Neodol 25-9 5 mM
  Critical Ratio, GC-1065, High: 1-3
[1]; [2]
  Critical Ratio, GC-1065, Low: 0.5-5.0
[1]; triolein emulsions, high conc. as E55
  Activity (specific hydrolysis activity from initial rates), GC-1065, High: 50 μeq acid/min./mg
[1]; [8]
  R, critical (minimum activating molar) ratio, GC-1065, High: 1-5
[1]; triolein emulsions, low conc. as E54
  Activity (specific hydrolysis activity from initial rates), GC-1065, Low: 60 μeq acid/min./mg
[1]; triolein emulsions, low conc.: SDS 1 mM, C12 LAS 0.5 mM, Neodol 25-9 0.5 mM, Neodol 25-3S 1 mM, Surfonic JL-80X 0.5 mM
  R, critical (minimum activating molar) ratio, GC-1065, Low: 5-10
Enzyme Amano P; [9]
  Critical Ratio: 1-5
  Enzyme Activity: 100 μmole H^+ released min^-1 mgE^
Enzyme Amano P; [4]
  critical ratio class, Amano P: 0 (means a critical ratio of 1.0-10)
Enzyme Amano P; [10]
  Critical Ratio: 5-10
  Enzyme Activity: 160 μmole H^+ released min^-1 mgE^
Enzyme Amano P; trioctanoin emulsions, high surfactant conc. as E43
  Specific Activity determined from initial rates, AMANO P, High: 200 μeq acid/min.mg
Enzyme Amano P; trioctanoin emulsions, lipase ~2 ppm, high conc.: SDS 10 mM, C12 LAS 5 mM, Neodol 25-9 5 mM, Neodol 25-3S 20 mM, Surfonic JL-80X 5 mM
  Critical Ratio, AMANO P, High: 5-10
Enzyme Amano P; trioctanoin emulsions, lipase ~2 ppm, low conc.: SDS 2 mM, C12 LAS 1 mM, Neodol 25-9 0.5 mM, Neodol 25-3S 2.0 mM, Surfonic JL-80X 0.5 mM
  Critical Ratio, AMANO P, Low: 1-5
Enzyme Amano P; trioctanoin emulsions, low surfactant conc. as E42
  Specific Activity determined from initial rates, AMANO P, Low: 100 μeq acid/min.mg
Enzyme Amano P; triolein emulsions, high conc. as E57
  Activity (specific hydrolysis activity from initial rates), AMANO P, High: 150 μeq acid/min./mg
Enzyme Amano P; [8]
  R, critical (minimum activating molar) ratio, AMANO P, High: 5-10
Enzyme Amano P; triolein emulsions, low conc. as E56
  Activity (specific hydrolysis activity from initial rates), AMANO P, Low: 160 μeq acid/min./mg
Enzyme Amano P; triolein emulsions, low conc.: SDS 1 mM, others 0.5 mM
  R, critical (minimum activating molar) ratio, AMANO P, Low: 5-10

## Triton X-100
[1]; [6]
  Critical Ratio: 10-15
  Enzyme Activity: 450 μmole H^+ released min^-1 mgE^
[1]
  Specific Activity determined from initial rates, GC-1065, High: 400 μeq acid/min.mg
  Specific Activity determined from initial rates, GC-1065, Low: 450 μeq acid/min.mg
[1]; C12 LAS 5 mM, Neodol 25-9 5 mM
  Critical Ratio, GC-1065, High: 15-20
[1]; [2]
  Critical Ratio, GC-1065, Low: 10-15
